Columns and labels:
[1] = Solubility of yellow couplers in 100 ml of ethyl acetate at 25° C.; format: physicochemical; conditions: for Solubility: 25° C.; for solubility in ethyl acetate relative to RY-1 and RY-2: in words
Experimental: Test for Solubility of Yellow Couplers in Organic Solvents:
A test was conducted in order to determine what grams of the yellow coupler shown in Table A below are dissolved in 100 ml of ethyl acetate at 25° C. The yellow coupler was gradually added to 100 ml of ethyl acetate by 0.1 g at a time and stirred for 5 minutes, whereupon the amount not dissolved was referred to as a saturation point. The results are shown in Table A. As comparative couplers, used were the following RY-1 and RY-2. [drawing 15]
Solubility of Couplers in 100 ml of
Ethyl Acetate (at 25° C.)

[2] = Solubility of yellow couplers in high boiling point organic solvents Solv-2, Solv-3 and Solv-9; format: physicochemical; conditions: in words
Experimental: The same test as above was conducted to determine the solubility of the yellow couplers in known high boiling point organic solvents Solv-2, Solv-3 and Solv-9 mentioned below.

Compound | Solubility [1] [g/100 ml] | solubility in ethyl acetate relative to RY-1 and RY-2 [1] | solubility in known high boiling point organic solvents relative to RY-1 and RY-2 [2]
CCCCCCCCC=CCCCCCCCC(=O)Nc1ccc(OC)c(NC(=O)C(C(=O)C(C)(C)C)N2C(=O)NC(C)(C)C2=O)c1 (centres unmarked) [Y-13] | 20.8 | much larger solubility in ethyl acetate than the known yellow couplers of RY-1 and RY-2 | much larger solubility in such solvents than the known yellow couplers of RY-1 and RY-2
CCC=CCC=CCC=CCCCCCCCC(=O)Nc1ccc(Cl)c(NC(=O)C(C(=O)C(C)(C)C)N2C(=O)NC(C)(C)C2=O)c1 (centres unmarked) [Y-3] | 21.4 | much larger solubility in ethyl acetate than the known yellow couplers of RY-1 and RY-2 | much larger solubility in such solvents than the known yellow couplers of RY-1 and RY-2
CCCCCCCCC=CCCCCCCCC(=O)Nc1ccc(Cl)c(NC(=O)C(C(=O)C(C)(C)C)N2C(=O)NC(C)(C)C2=O)c1 (centres unmarked) [Y-1] | 21.0 | much larger solubility in ethyl acetate than the known yellow couplers of RY-1 and RY-2 | much larger solubility in such solvents than the known yellow couplers of RY-1 and RY-2
CCCCCC=CCC=CCCCCCCCC(=O)Nc1ccc(Cl)c(NC(=O)C(C(=O)C(C)(C)C)N2C(=O)NC(C)(C)C2=O)c1 (centres unmarked) [Y-2] | 21.2 | much larger solubility in ethyl acetate than the known yellow couplers of RY-1 and RY-2 | much larger solubility in such solvents than the known yellow couplers of RY-1 and RY-2
CCCCCCCCCCCCCCCCCC(=O)Nc1ccc(Cl)c(NC(=O)C(C(=O)C(C)(C)C)N2C(=O)NC(C)(C)C2=O)c1 (centres unmarked) [RY-2, reference compound] | 8.5 |  | 
CCC(Oc1ccc(C(C)(C)CC)cc1C(C)(C)CC)C(=O)Nc1ccc(Cl)c(NC(=O)C(C(=O)C(C)(C)C)N2C(=O)NC(C)(C)C2=O)c1 (centres unmarked) [RY-1, reference compound] | 15.8 |  | 
